These results are taken from patent US4393225A, “AI-77 Compounds and pharmaceutically acceptable salts thereof” (Asahi Kasei Kogyo Kabushiki Kaisha, priority 1979, dated 1983).

The nature of series [1]: Solubility of compounds A to G. The conditions noted are these: in water and organic solvents. Type of series: physicochemical.
A short description of series [2]: Stability (heat, alkali, aqueous solution) of compounds A to G. Type of series: physicochemical.
Another series relates to ulcer. Briefly: Anti-ulcer test (restraint and water immersion ulcer in rats, i.p.). Type of series: in vivo, Male Wistar rats. The conditions noted are these: Rattus norvegicus, ip; 50 mg/kg i.p.; read-out: % Inhibition of Ulcer. A digest of the protocol:
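Compound given intraperitoneally in saline to 24 h-fasted male Wistar rats about 150 g, followed after one hour by 6 h restraint with water immersion at 21 °C. Gastric lesions graded 0, 0.5, 1, 2 or 3 on microscopic inspection and converted to percent ulcer inhibition.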

As for `CCC(=O)NC1CC(=O)OC1C(O)C(=O)NC(CC(C)C)C1Cc2cccc(O)c2C(=O)O1` (stereo not drawn) [D], in series [1], the solubility result was “soluble in lower alcohol, dimethylformamide, dimethyl sulfoxide, dioxane, chloroform, and ethyl acetate, and substantially insoluble in water, ether, hexane and benzene”. Also, the “stability to heat and/or alkali” value in series [2] is reported as “as labile to alkali as AI-77-B”. Also, the inhibition in vivo at 50 mg/kg with ulcer was determined as 66%.

On to `CC(C)CC(NC(=O)C(O)C1C=CC(=O)O1)C1Cc2cccc(O)c2C(=O)O1` (stereo not drawn) [F], for which, in series [1], the solubility entry was “freely soluble in ethyl acetate, chloroform, dimethylformamide and dimethyl sulfoxide, sparingly soluble in lower alcohols and dioxane, and substantially insoluble in water, hexane and benzene”. For the same molecule, in series [2], the “stability to heat and/or alkali” value is listed as “as labile to alkali as AI-77-B”. For the same molecule, the inhibition in vivo at 50 mg/kg in the series on ulcer turned out to be 44%.

As for `CC(=O)NC1CC(=O)OC1C(O)C(=O)NC(CC(C)C)C1Cc2cccc(O)c2C(=O)O1` (stereo not drawn) [C], the solubility entry in series [1] was “freely soluble in lower alcohols, dimethylformamide, dimethyl sulfoxide and dioxane, sparingly soluble in chloroform and ethyl acetate, and substanitally insoluble in water, ether, hexane and benzene”. The “stability to heat and/or alkali” value in series [2] is given as “as labile to alkali is AI-77-B”. Moreover, the inhibition in vivo at 50 mg/kg in the series on ulcer is 66%.

For the molecule `CC(C)CC(NC(=N)C(O)C(O)C(N)CC(=O)O)C1Cc2cccc(O)c2C(=O)O1` (stereo not drawn) [A], the solubility entry in series [1] was “freely soluble in water, methanol, dimethylformamide, and dimethyl sulfoxide, sparingly soluble in a lower alcohol of C2 to C3 and dioxane, and substantially insoluble in ethyl acetate, chloroform, ether, hexane and benzene”. Besides, the “stability to heat and/or alkali” value in series [2] was “very labile to heat and alkali”. Further, in the series on ulcer, the inhibition in vivo at 50 mg/kg was found to be 100%.

In the case of `CC(C)CC(NC(=O)C(O)C(O)C(N)CC(=O)O)C(O)Cc1cccc(O)c1C(=O)O` (stereo not drawn) [G], the solubility result in series [1] is “freely soluble in water and slightly soluble in organic solvents”. The “stability in aqueous solution” value in series [2] (aqueous solution) is reported as “relatively stable in aqueous solution”. Besides, the inhibition in vivo at 50 mg/kg with ulcer was 33%.

On to `CC(C)CC(NC(=O)C(O)C(O)C(N)CC(=O)O)C1Cc2cccc(O)c2C(=O)O1` (stereo not drawn) [B], for which the solubility entry in series [1] was “freely soluble in water, methanol, dimethylformamide and dimethyl sulfoxide, sparingly soluble in other lower alcohols, dioxane and tetrahydrofuran, and substantially insoluble in ethyl acetate, chloroform, ether, hexane and benzene”. Also, the “stability to heat and/or alkali” value in series [2] was “labile to alkali in which the hydrolysis of lactone proceeds gradually even at room temperature”. Moreover, in the series with ulcer, the inhibition in vivo at 50 mg/kg is 100%.
